Where two headings read alike, the source gives them in different places.
Tests used:
OC43 Mpro = OC43 Mpro (Human coronavirus OC43, UniProt P0C6X6); experiment: OC43 Mpro enzymatic assay; type: biochemical, HCoV OC43
Protocol: (§1) Compounds were assayed using standard methods to assess compound activity and IC50. As an exemplary for assessment of the SARS-COV2 Mpro, the C-His6-tagged Mpro (NC_045512) was cloned, expressed in E. coli and purified. The assay buffer contained 20 mM of Tris-HCl (pH 7.3), 100 mM of NaCl, 1 mM of EDTA, 5 mM of TCEP and 0.1% BSA. The final concentrations of the Mpro protein and substrate were 25 nM and 25 μM, respectively, in the Mpro enzymatic assay. The Km of the Mpro substrate for the protease was 13.5 μM.
(§2) The compounds were added to an assay plate. For 100% inhibition control (HPE, hundred percent effect), 1 μM GC376 was added. For no inhibition control (ZPE, zero percent effect), no compound was added.
(§3) IC50 values of compounds were calculated with the GraphPad Prism software using the nonlinear regression model of log(inhibitor) vs. response—Variable slope (four parameters). The inhibition activity was calculated using the formula below, IC50 values is calculated using the Inhibition % data.
(§4) [formula] • #HEP: Hundred percent effect controls. Containing substrate+enzyme+1 μM GC376. • ZPE: Zero percent effective controls. Containing enzyme+substrate, no compound. • Sample: Compound activity testing wells. Containing compound+enzyme+substrate. • BG: Compound background control wells. Containing compound+substrate, no enzyme.

229E Mpro = 229E Mpro (Human coronavirus 229E, UniProt P0C6X1); experiment: 229E Mpro enzymatic assay; type: biochemical, HCoV 229E
229E Mpro, sequence (P0C6X1 2966-3267): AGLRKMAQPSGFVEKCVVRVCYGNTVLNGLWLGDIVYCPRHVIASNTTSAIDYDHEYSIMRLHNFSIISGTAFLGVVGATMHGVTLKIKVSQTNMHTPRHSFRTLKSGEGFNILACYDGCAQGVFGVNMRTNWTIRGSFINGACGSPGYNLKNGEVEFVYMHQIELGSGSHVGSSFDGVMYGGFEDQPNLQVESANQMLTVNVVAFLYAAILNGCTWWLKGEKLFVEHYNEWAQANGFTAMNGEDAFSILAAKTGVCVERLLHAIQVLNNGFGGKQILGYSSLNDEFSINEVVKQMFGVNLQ
Protocol: as §1, §2, §3, §4

SARS-COV2 Mpro = SARS-COV2 Mpro (Severe acute respiratory syndrome coronavirus 2, UniProt P0DTD1); experiment: COVID-19 (nCoV-2019, SARS-CoV2) Mpro enzymatic assay; type: biochemical; details: read-out: COVID-19 Mpro IC50
Protocol: as §1, with “assay.” for “assay. The Km of the Mpro substrate for the protease was 13.5 μM.”
The compounds were added to an assay plate. For 100% inhibition control (HPE, hundred percent effect), 1 μM GC376 was added.
as §3
[formula] • #HEP: Hundred percent effect controls. […] Containing enzyme+substrate, no compound. • Sample: Compound activity testing wells. Containing compound+enzyme+substrate. • BG: Compound background control wells. Containing compound+substrate, no enzyme.

OC43 Mpro, sequence (P0C6X6 3247-3549): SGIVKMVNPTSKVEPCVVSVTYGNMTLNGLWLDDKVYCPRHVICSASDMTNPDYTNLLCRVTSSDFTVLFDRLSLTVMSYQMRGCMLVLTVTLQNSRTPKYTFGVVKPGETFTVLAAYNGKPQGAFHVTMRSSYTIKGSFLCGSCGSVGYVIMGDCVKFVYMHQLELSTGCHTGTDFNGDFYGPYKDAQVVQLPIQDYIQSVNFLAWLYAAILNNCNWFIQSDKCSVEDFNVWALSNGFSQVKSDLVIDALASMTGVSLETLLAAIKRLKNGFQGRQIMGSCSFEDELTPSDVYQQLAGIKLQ

| SMILES | IC50 (OC43 Mpro; Table 5) | IC50 (229E Mpro; Table 5) | IC50 (SARS-COV2 Mpro; Table 5) | IC50 (OC43 Mpro; Table 3) | IC50 (229E Mpro; Table 3) | IC50 (SARS-COV2 Mpro; Table 3) |
| --- | --- | --- | --- | --- | --- | --- |
| C[C@H](OC(C)(C)C)[C@H](NC(=O)C(F)(F)F)C(=O)N1C[C@H]2[C@@H]([C@H]1C(=O)N[C@H](C#N)C[C@@H]1CC3(CC3)NC1=O)C2(C)C [Compound 138, (1R,2S,5S)-3-[(2S,3S)-3-tert-butoxy-2-[(2,2,2-trifluoroacetyl)amino]butanoyl]-N-[(1S)-1-cyano-2-[(6R)-5-oxo-4-azaspiro[2.4]heptan-6-yl]ethyl]-6,6-dimethyl-3-azabicyclo[3.1.0]hexane-2-carboxamide] | < 2 µM | < 2 µM | < 2 µM | – | – | – |
| C[C@@H](OC(C)(C)C)[C@H](NC(=O)C(F)(F)F)C(=O)N1C[C@H]2[C@@H]([C@H]1C(=O)N[C@H](C#N)C[C@@H]1CCCNC1=O)C2(C)C [Compound 431, (1R, 2S, 5S)-3-((2S, 3R)-3-(tert-butoxy)-2-(2,2,2-trifluoroacetamido)butanoyl)-N—((S)-1-cyano-2-((S)-2-oxopiperidin-3-yl)ethyl)-6,6-dimethyl-3-azabicyclo[3.1.0]hexane-2-carboxamide] | < 2 µM | < 2 µM | < 2 µM | – | – | – |
| C[C@@H](OC1(C#N)CC1)[C@H](NC(=O)C(F)(F)F)C(=O)N1C[C@H]2[C@@H]([C@H]1C(=O)N[C@H](C#N)C[C@@H]1CC3(CC3)NC1=O)C2(C)C [Compound 335] | < 2 µM | < 2 µM | < 2 µM | – | – | – |
| CC(C)(C)[C@H](NC(=O)OC1CC(F)(F)C1(F)F)C(=O)N1C[C@H]2[C@@H]([C@H]1C(=O)N[C@H](C#N)C[C@@H]1CC3(CC3)NC1=O)C2(C)C (single isomer, unassigned) [273 Isomer 1] | – | – | – | < 2 µM | < 2 µM | < 2 µM |
| CC1(C)CCC(C[C@@H](C#N)NC(=O)[C@@H]2[C@@H]3[C@H](CN2C(=O)[C@@H](NC(=O)C(F)(F)F)C(C)(C)C)C3(C)C)C(=O)N1 (stereo partly drawn) [Compound 361, (1R,5S)—N-[(1S)-1-cyano-2-(6,6-dimethyl-2-oxo-3-piperidyl)ethyl]-3-[(2S)-3,3-dimethyl-2-[(2,2,2-trifluoroacetyl)amino]butanoyl]-6,6-dimethyl-3-azabicyclo[3.1.0]hexane-2-carboxamide] | – | – | – | < 2 µM | 10 to 30 µM | < 2 µM |
| C[C@@H](OC1(C#N)CC1)[C@H](NC(=O)C(F)(F)F)C(=O)N1C[C@H]2[C@@H]([C@H]1C(=O)N[C@H](C#N)C[C@@H]1CC(C)(C)NC1=O)C2(C)C [Compound 334, (1R,2S,5S)-3-[(2S,3R)-3-(1-cyanocyclopropoxy)-2-[(2,2,2-trifluoroacetyl)amino]butanoyl]-N-[(1S)-1-cyano-2-[(3R)-5,5-dimethyl-2-oxo-pyrrolidin-3-yl]ethyl]-6,6-dimethyl-3-azabicyclo[3.1.0]hexane-2-carboxamide] | < 2 µM | < 2 µM | < 2 µM | – | – | – |
| C[C@@H](OC(C)(C)C(F)(F)F)[C@H](NC(=O)C(F)(F)F)C(=O)N1C[C@H]2[C@@H]([C@H]1C(=O)N[C@H](C#N)C[C@@H]1CC3(CC3)NC1=O)C2(C)C [Compound 358, (1R,2S,5S)—N-[(1S)-1-cyan-2-[(6R)-5-oxo-4-azaspiro[2.4]heptan-6-yl]ethyl]-6,6-dimethyl-3-[(2S,3R)-2-[(2,2,2-trifluoroacetyl)amino]-3-(2,2,2-trifluoro-1,1-dimethyl-ethoxy)butanoyl]-3-azabicyclo[3.1.0]hexane-2-carboxamide] | < 2 µM | < 2 µM | < 2 µM | – | – | – |
| CO[C@H](C)[C@H](NC(=O)C(F)(F)F)C(=O)N1C[C@H]2[C@@H]([C@H]1C(=O)N[C@H](C#N)C[C@@H]1CC(C)(C)NC1=O)C2(C)C [Compound 290, (1R,2S,5S)-N—((S)-1-cyano-2-((R)-5,5-dimethyl-2-oxopyrrolidin-3-yl)ethyl)-3-((2S,3R)-3-methoxy-2-(2,2,2-trifluoroacetamido)butanoyl)-6,6-dimethyl-3-azabicyclo[3.1.0]hexane-2-carboxamide] | < 2 µM | < 2 µM | < 2 µM | – | – | – |
| CO[C@H](C)[C@H](NC(=O)C(F)(F)F)C(=O)N1C[C@H]2[C@@H]([C@H]1C(=O)N[C@H](C#N)C[C@@H]1CC3(CCC3)NC1=O)C2(C)C [Compound 425, (1R,2S,5S)—N-[(1S)-1-cyano-2-[(7R)-6-oxo-5-azaspiro[3.4]octan-7-yl]ethyl]-3-[(2S,3R)-3-methoxy-2-[(2,2,2-trifluoroacetyl)amino]butanoyl]-6,6-dimethyl-3-azabicyclo[3.1.0]hexane-2-carboxamide] | < 2 µM | < 2 µM | < 2 µM | – | – | – |
| C[C@@H](OCC(F)(F)F)[C@H](NC(=O)C(F)(F)F)C(=O)N1C[C@H]2[C@@H]([C@H]1C(=O)N[C@H](C#N)C[C@@H]1CC(C)(C)NC1=O)C2(C)C [Compound 312, (1R,2S,5S)—N-[(1S)-1-cyano-2-[(3R)-5,5-dimethyl-2-oxo-pyrrolidin-3-yl]ethyl]-6,6-dimethyl-3-[(2S,3R)-2-[(2,2,2-trifluoroacetyl)amino]-3-(2,2,2-trifluoroethoxy)butanoyl]-3-azabicyclo[3.1.0]hexane-2-carboxamide] | < 2 µM | < 2 µM | < 2 µM | – | – | – |
| CC(C)(C)[C@H](NC(=O)OC1CC(F)(F)C1(F)F)C(=O)N1C[C@H]2[C@@H]([C@H]1C(=O)N[C@H](C#N)C[C@@H]1CC3(CC3)NC1=O)C2(C)C (single isomer, unassigned) [273 Isomer 2] | – | – | – | < 2 µM | < 2 µM | < 2 µM |
| CC(C)(C)[C@H](NC(=O)C(F)(F)F)C(=O)N1C[C@H]2[C@@H]([C@H]1C(=O)N[C@H](C#N)C[C@@H]1CC3(CCC3)NC1=O)C2(C)C [Compound 362, (1R,2S,5S)—N-[(1S)-1-cyano-2-[(7R)-6-oxo-5-azaspiro[3.4]octan-7-yl]ethyl]-3-[(2S)-3,3-dimethyl-2-[(2,2,2-trifluoroacetyl)amino]butanoyl]-6,6-dimethyl-3-azabicyclo[3.1.0]hexane-2-carboxamide] | – | – | – | < 2 µM | < 2 µM | < 2 µM |
| C[C@@H](OC(C)(C)C)[C@H](NC(=O)C(F)(F)F)C(=O)N1C[C@H]2[C@@H]([C@H]1C(=O)N[C@H](C#N)C[C@@H]1CC3(CC3)NC1=O)C2(C)C [Compound 137, (1R,2S,5S)-3-[(2S,3R)-3-tert-butoxy-2-[(2,2,2-trifluoroacetyl)amino]butanoyl]-N-[(1S)-1-cyano-2-[(6R)-5-oxo-4-azaspiro[2.4]heptan-6-yl]ethyl]-6,6-dimethyl-3-azabicyclo[3.1.0]hexane-2-carboxamide] | < 2 µM | < 2 µM | < 2 µM | – | – | – |
| C[C@@H](OC1(C)CC1)[C@H](NC(=O)C(F)(F)F)C(=O)N1C[C@H]2[C@@H]([C@H]1C(=O)N[C@H](C#N)C[C@@H]1CC3(CC3)NC1=O)C2(C)C [Compound 315, (1R,2S,5S)—N-[(1S)-1-cyan-2-[(6R)-5-oxo-4-azaspiro[2.4]heptan-6-yl]ethyl]-6,6-dimethyl-3-[(2S,3R)-3-(1-methylcyclopropoxy)-2-[(2,2,2-trifluoroacetyl)amino]butanoyl]-3-azabicyclo[3.1.0]hexane-2-carboxamide] | – | – | – | < 2 µM | < 2 µM | < 2 µM |
| C[C@@H](OC1(C)CCC1)[C@H](NC(=O)C(F)(F)F)C(=O)N1C[C@H]2[C@@H]([C@H]1C(=O)N[C@H](C#N)C[C@@H]1CC(C)(C)NC1=O)C2(C)C [Compound 308, (1R,2S,5S)—N-[(1S)-1-cyano-2-[(3R)-5,5-dimethyl-2-oxo-pyrrolidin-3-yl]ethyl]-6,6-dimethyl-3-[(2S,3R)-3-(1-methylcyclobutoxy)-2-[(2,2,2-trifluoroacetyl)amino]butanoyl]-3-azabicyclo[3.1.0]hexane-2-carboxamide] | – | – | – | < 2 µM | < 2 µM | < 2 µM |
| C[C@@H](OC1CC1)[C@H](NC(=O)C(F)(F)F)C(=O)N1C[C@H]2[C@@H]([C@H]1C(=O)N[C@H](C#N)C[C@@H]1CC3(CC3)NC1=O)C2(C)C [Compound 326, (1R,2S,5S)—N-[(1S)-1-cyan-2-[(6R)-5-oxo-4-azaspiro[2.4]heptan-6-yl]ethyl]-3-[(2S,3R)-3-(cyclopropoxy)-2-[(2,2,2-trifluoroacetyl)amino]butanoyl]-6,6-dimethyl-3-azabicyclo[3.1.0]hexane-2-carboxamide] | < 2 µM | < 2 µM | < 2 µM | – | – | – |
| CC(C)(C)[C@H](NC(=O)C(F)(F)F)C(=O)N1C[C@H]2[C@@H]([C@H]1C(=O)N[C@H](C#N)C[C@@]1(C)CC3(CC3)NC1=O)C2(C)C [Compound 375] | – | – | – | < 2 µM | < 2 µM | < 2 µM |

Reference: patent US20240277795A1, “INHIBITORS OF CYSTEINE PROTEASES AND METHODS OF USE THEREOF” (Pardes Biosciences, Inc., priority 2021, published 2024)
